# “Also recorded” adds a separate entry of the source.
# Columns and labels:
# [1] = tested on: bovine femoral artery, contraction to angiotensin II; test: contraction of the bovine femoral artery to angiotensin II
# Procedure: The data are expressed as a percentage of the maximal response to norepinephrine (10^-4 M) and are shown as mean ±SEM in each group (n=6).
# (§1) Blood Vessel Preparation. Bovine coronary or femoral arteries were obtained from an abattoir immediately after sacrifice of two- to four-week-old calves. Immediately after removal, the vessel was placed in ice-cold physiologic salt solution (PSS) containing 118.3 mM NaCl, 4.7 mM KCl, 2.5 mM CaCl2, 1.2 mM MgSO4, 1.2 mM KH2 PO4, 25.0 mM NaHCO3, 11.1 mM glucose, and 0.026 mM calcium disodium (ethylenedinitrilo)-tetraacetate. The vessels were then cleaned of adventitial tissue and cut into rings of approximately 5 mm lengths. When called for by the protocol, endothelium was removed from a ring by gently rubbing the luminal surface with a watchmaker's forceps. Vascular rings with intact endothelium were then suspended in organ chambers containing 25 ml of PSS at 37° aerated with 95% O2 -5% CO2. The rings were connected to force transducers (Grass FT03C, Quincy, Mass.) and changes in isometric force recorded continuously (Grass Polygraph Model 79B) over a period of 90 minutes. The optimal length-tension relationship was determined for each ring by observing the response to 10^-6 M norepinephrine after increments in tension of 0.5 gm. The functional integrity of the endothelium was assessed by contracting the vessel with 10^-6 M norepinephrine and then observing the response to 3×10^-7 M acetylcholine chloride.
# [2] = tested on: cGMP (and cAMP) in vascular rings; test: cGMP (and cAMP) levels in vessel ring segments; type: cell-based; settings: 10^-5 M, one minute
# Procedure: Since the postulated mechanism by which the nitrosothiol moiety of S-nitrosocaptopril directly relaxes vascular smooth muscle and attenuates the platelet aggregation response is believed to be through activation of soluble guanylate cyclase, cGMP (and cAMP) levels were measured in vessel ring segments and in platelets incubated with 10^-5 M S-nitrosocaptopril.
# [3] = tested on: bovine femoral artery, contraction to angiotensin I; test: contraction of the bovine femoral artery to angiotensin I
# Procedure: The data are expressed as a percentage of the maximal response to norepinephrine (10^-6 M) and are shown as mean ±SEM in each group (n=7).
# as §1
# bovine coronary artery = test: relaxation of isolated bovine coronary artery rings contracted with potassium chloride
# Description: FIG. 5 depicts a graph showing the relaxation to sodium nitroprusside in the bovine coronary artery in the presence (o; n=7) or absence (; n:12) of a subthreshhold dose of S-nitrosocaptopril. The data are expressed as a percentage of the initial tension generated by potassium chloride (4×10^-2 M; coronary arteries) and are shown as mean ±SEM in each group.
# as §1
# Thus, to study vasodilating agents in this tissue the vessels were first contracted with potassium chloride (40 mM). Relaxations are expressed as a percent of the concentration to 40 mM potassium chloride.
# Relaxations to S-nitrosocaptopril were inhibited by the antagonist of soluble guanylate cyclase, methylene blue (FIG. 4). Sodium nitroprusside induced dose-dependent relaxations of contractions to potassium chloride. The relaxation to sodium nitroprusside was inhibited by subthreshold doses of S-nitrosocaptopril (FIG. 5).
# platelets = test: platelet aggregation in PRP induced by ADP; type: cell-based, human; settings: Homo sapiens, Platelet, 11 μM ADP
# Procedure: FIG. 7 depicts a graph showing the effect of S-nitrosocaptopril on platelet aggregation. Platelets in PRP were incubated with S-nitrosocaptopril over a range of concentrations for three minutes, after which ADP was added to a final concentration of 11 uM. The maximal rate of aggregation was measured and plotted as a percentage of that observed in the absence of S-nitrosocaptopril. Each point represents the mean ±SEM of five experiments each performed in duplicate.
# Platelets. Volunteers who had not ingested acetylsalicylic acid for at least ten days provided venous blood within one hour of use. […] Platelet counts were determined using a Coulter counter (Model ZM; Coulter Electronics, Hialeah, Fla.) and adjusted with platelet-poor plasma (PPP) to 1.5×10^8 platelets/ml prior to use.
# Platelet Aggregation. Platelet aggregation was monitored using a standard nephelometric technique (Born and Cross, J. Physiol (London) 168:178-195 (1963)) in which PRP was incubated at 37° with a final concentration of 11 μM ADP and stirred at 900 rpm in a Payton dual channel aggregometer (Payton Associates, Inc., Buffalo, N.Y.). Aggregation was quantitated by measuring either the maximal rate of change of light transmittance or the extent of change of light transmittance. […]
compound,measurement,setting,value
C[C@H](CSN=O)C(=O)N1CCC[C@H]1C(=O)O [S-nitrosocaptopril],shift rightward in the dose response curve to angiotensin II,[1],5 fold
same,responses to angiotensin II in the presence of S-nitrosocaptopril (in words),"[1]; 10^-6 M, FIG. 10",significantly less than control
same,"cAMP levels, vessel rings (in words)",[2],did not change from basal levels
same,"cGMP level, vascular rings",[2],0.0375 pmol/mg tissue
same,fold induction at 10 µM,"[2]; Bos taurus, 1 min, read-out: increase of cGMP levels, vascular rings",36.5
same,"inhibition of contractions to angiotensin I, S-nitrosocaptopril versus captopril (in words)",[3],equally inhibited contractions to angiotensin I
same,"shift in the response to angiotensin I (rounded, discussion)",[3],50 fold
same,log shift at the ED50 in the response to angiotensin I,"[3]; 10^-6 M, n=6, p<0.001, FIG. 9",1.74±0.25 log
same,shift at the ED50 in the response to angiotensin I,"[3]; 10^-6 M, n=6, p<0.001, FIG. 9",56 fold
same,IC50,"bovine coronary artery; Bos taurus, contracted with potassium chloride (40 mM)",1.9 µM
same,Emax,"bovine coronary artery; Bos taurus, contracted with potassium chloride (40 mM), read-out: maximal relaxation, coronary artery",97 ± 7%
same,"maximum inhibitory effect / relaxation, coronary artery compared with femoral artery (in words)",bovine coronary artery; FIG. 3,significantly greater than those in the femoral artery (p<0.05); also recorded: significantly greater in the coronary artery than in the femoral artery
same,effect on relaxation to sodium nitroprusside (in words),"bovine coronary artery; subthreshold doses of S-nitrosocaptopril, FIG. 5",inhibited
same,IC50,platelets,~80 µM
